{"source": "BindingDB's records for patent US12226405", "about": "(Novartis, 2025)", "molecular_target": "Endothelial PAS domain-containing protein 1 (Homo sapiens, UniProt Q99814)", "sequence (Q99814 whole entry, the tested form may be a part)": "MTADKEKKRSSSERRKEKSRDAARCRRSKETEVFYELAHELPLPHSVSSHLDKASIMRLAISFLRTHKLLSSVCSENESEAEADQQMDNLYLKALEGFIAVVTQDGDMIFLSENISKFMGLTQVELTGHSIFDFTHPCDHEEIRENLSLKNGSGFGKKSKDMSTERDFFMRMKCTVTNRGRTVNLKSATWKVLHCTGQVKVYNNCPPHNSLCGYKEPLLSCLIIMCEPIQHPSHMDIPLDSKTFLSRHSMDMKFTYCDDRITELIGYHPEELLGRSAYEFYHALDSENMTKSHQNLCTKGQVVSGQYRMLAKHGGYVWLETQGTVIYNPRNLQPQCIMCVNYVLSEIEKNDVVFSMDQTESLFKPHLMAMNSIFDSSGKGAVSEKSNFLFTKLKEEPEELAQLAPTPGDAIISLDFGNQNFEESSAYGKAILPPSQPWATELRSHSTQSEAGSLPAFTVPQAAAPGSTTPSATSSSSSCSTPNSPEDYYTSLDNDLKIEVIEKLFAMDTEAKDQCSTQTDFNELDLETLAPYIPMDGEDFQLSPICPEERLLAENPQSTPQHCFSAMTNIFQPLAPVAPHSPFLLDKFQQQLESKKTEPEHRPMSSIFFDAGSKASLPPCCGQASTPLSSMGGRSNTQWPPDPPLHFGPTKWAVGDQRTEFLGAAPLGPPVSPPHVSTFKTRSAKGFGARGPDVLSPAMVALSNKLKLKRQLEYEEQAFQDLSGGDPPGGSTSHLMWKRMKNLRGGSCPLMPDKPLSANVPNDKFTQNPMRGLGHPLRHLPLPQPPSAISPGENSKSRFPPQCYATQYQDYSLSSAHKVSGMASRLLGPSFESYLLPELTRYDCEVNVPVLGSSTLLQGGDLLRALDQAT", "test": "Scintillation Proximal Assay (SPA)", "experimental": "Compounds (tested using a 14-point dose response with 3-fold compound dilutions from 100 μM to 60 pM) were pre-incubated for 30 min with HIF2α PAS-B domain (236-350, biotinylated on the N-terminus), before addition of the radio-ligand. […] Duplicates were made using 2 different plates, and mean IC50 values were determined using the Helios system based on the following equation: % inhibition=[(high control−sample)/(high control−low control)]×100. The IC50 values in the Tabulated HIF2α activities are the average from 1 to 10 independent experiments.", "note": "pIC50: −log10 of the molar value."}
{"smiles": "FC(F)OC1=CC(C(F)(F)F)=CN2C[C@@]3(CCc4cc(C(F)(F)F)ccc43)N=C12", "note": "[US12226405, Example 6]", "values": [{"measurement": "pIC50", "result": 8.10}]}
